For one data set, the target named is T1, HLA-DR4Dw4 (Homo sapiens, UniProt P01903+P01911, A100K/A169T/F76Y/I96L/K127E/L162R/M171V/N62H/P40V/Q125Y/R42H/S133A/S149N/S66Y/V115G/V209L/W38E).
T1 construct: a cDNA encoding the β chain is cloned into the transfer vector pAcUW1; made in house; host or cells: Sf21 insect cells, double-recombinant baculovirus
The experiment in a line: Test A: purified HLA-DR peptide in vitro binding assay. The following applies: purified HLA-DR4Dw4, biotin-FHA307-320. As to the method: Test A: Purified HLA-DR peptide in vitro binding assay. […]. At the end of the incubation period 100 μl of the incubate is transferred to Enzyme Linked lmmunoSorbant Assay (ELISA) plates (Nunc) previously coated with an anti-MHC antibody (L243--American Type Culture Collection (ATCC) HB55 --as described in Lampson and Levy (1980) J. Immunol. 125, 293-299) at a concentration of 10 μg/ml for 1 hour at room temperature and blocked thereafter for 1 hour with 1% bovine serum albumin (BSA) in PBS and 0.05% Tween 20. After a further 1 hour period the unbound peptide is washed away and a 1/4,000 dilution of streptavidin peroxidase (Sigma) in PBS with 0.01% of a suitable detergent such as NP40 (Sigma) added for 2 hours at room temperature. After further washing, tetramethylbenzidene (TMB) substrate solution (1 TMB tablet (Sigma) in 10 mIs of 0.1 M citrate/acetate buffer, pH 6.0 with 36 μl urea hydrogen peroxide (UHPO) (Fluka)) is added to each of the plates. The reaction is stopped by adding 2M sulphuric acid (10 μl per well) and the absorbance read at 450 nm to quantify the amount of peptide bound. The inhibitory activity of peptides is obtained by plotting absorbance against concentration.
The purified HLA-DR4Dw4 may be obtained as follows:
(i) Expression of HLA-DR in the Baculovirus System
The expression of recombinant proteins in insect cells from baculovirus vectors is an established procedure to obtain high yields of recombinant protein [Luckow, V A & Summers, M D, 1988, Biotechnology, 6, 47-551]. To enable the expression of the heterodimeric HLA-DR, eg. HLA-DR4Dw4, from a single recombinant baculovirus vector (as opposed to having separate recombinant viruses for the α and β chains and then doing a co-infection), a double-recombinant baculovirus is constructed which carries both the α and β chains.
A cDNA encoding the sequence of the α polypeptide is cloned into the transfer vector pacYM1 [Matsuura, Y; Possee, R D; Overton, H A & Bishop, D H L, 1987, J. Gen. […] The molecular genetic techniques used to construct the recombinant vectors are likewise readily available in the literature and are most fully described by Sambrook, J; Fritsch, E F & Maniatis T, (1989) [Molecular Cloning. […]
To create the double-recombinant baculovirus, a cDNA encoding the β chain is cloned into the transfer vector pAcUW1 [Weyer, U; Knight, S & Possee, R D, 1990, J. Gen. […] Double-recombinant viruses are detected by spotting insect cells, infected with randomly picked viruses from the transfection, onto membranes and reacting them with a monoclonal antibody, e.g. L243, which specifically recognises the HLA-DR heterodimer. Binding of the antibody to Sf21 insect cells is detected using standard flow cytometry techniques, readily available in the literature. […]

The format of data set [1] is physicochemical. The following applies: for aqueous stability at pH3: pH 3. On the procedure:
A typical procedure for measuring the stability of a peptide derivative of the present invention is as follows, in which, to minimize microbial contamination and degradation, all equipment that is used to prepare peptide solutions is sterilized in an autoclave and all material transfers carried out in a Class II laminar flow cabinet. Approximately 20 ml of Mcllvaine's citric acid-phosphate buffer solution at pH 3 or 7.6 containing 0.02% sodium azide is filtered into a 50 mL bottle using a sterile 0.22 μm filter unit and a 20 ml syringe. Approximately 1.2 mg of peptide is accurately weighed in a capped vial. Using a sterile pipette tip, sufficient buffer solution is added to the peptide in the vial to give a peptide concentration of 0.1 mg/ml. The vial is capped and shaken to dissolve the peptide. Using a sterile pipette tip, aliquots of approximately 1 ml of the peptide solution are transferred to 10 HPLC vials, which are then capped. 5 vials are stored at -18 and 37° C. The area of the peptide peak for the solution is determined by HPLC using appropriate standards initially and after storage at -18 and 37° C. for 1, 2, 3 and 4 weeks, using a fresh vial at each time point with duplicate sample injections. The percentage of peptide remaining after storage at 37° C. at each time point is determined from the ratio of the area of the peptide peak at each time point to the initial area. Preferred peptide derivatives of the present invention have greater than 90%, and preferably greater than 95%, of peptide remaining after storage at 37° C. at both pH 3 and 7.6.

Bounds are passed on as bounds.

Consider “Phv-Arg-Ala-Ala-Ala-Val-IIb-Ala-Pip-NH2 [Example 5]”, for which the “concentration showing significant binding to HLA-DR4Dw4 in Test A” value on HLA-DR4Dw4 is less than 0.1 µM. Besides, in data set [1], the “aqueous stability at pH3” value is listed as “good aqueous stability” and the “aqueous stability at pH 7.6” value is recorded as “good aqueous stability”.

On to “Phv-Gap(Me)4 -Ala-Ala-Ala-Thr-IIb-Ala-Papa-NH2 [Example 16]”, for which, on HLA-DR4Dw4, the “concentration showing significant binding to HLA-DR4Dw4 in Test A” value was less than 0.1 µM. Moreover, in data set [1], the “aqueous stability at pH3” value is given as “good aqueous stability” and the “aqueous stability at pH 7.6” value is reported as “good aqueous stability”.

With “Phv-Ala-Arg-Ala-IIb-Ala-Arg-Ala-Papa-NH2 [Example 23]”, the “concentration showing significant binding to HLA-DR4Dw4 in Test A” value on HLA-DR4Dw4 was less than 0.1 µM. Besides, in data set [1], the “aqueous stability at pH3” value is listed as “good aqueous stability” and the “aqueous stability at pH 7.6” value is recorded as “good aqueous stability”.
